pEC50: −log10 of the molar value.

One assay relates to HIV-IIIb. Kind of assay: Test A: Antiviral Assays in MT4 Cells. To be noted: Human immunodeficiency virus 1, IIIB, MT4, 120 h, MT-4 cells infected with HIV-IIIb (0.004 m.o.i.), 5 days of incubation, CellTiter-Glo chemiluminescence readout; read-out: EC50. Type of assay: cell-based. As to the method: Test A: Antiviral Assays in MT4 Cells
For the antiviral assay utilizing MT-4 cells, 0.4 μL of […] test concentration of 3-fold serially diluted compound in DMSO was added to 40 μL of cell growth medium (RPMI 1640, 10% FBS, 1% penicillin/Streptomycin, 1% L-Glutamine, 1% HEPES) in each well of 384-well assay plates (10 concentrations) in quadruplicate.
1 mL aliquots of 2×10e6 MT-4 cells are pre-infected for 1 and 3 hrs respectively, @37° C. with 25 μL (MT4) or of either cell growth medium (mock-infected) or a fresh 1:250 dilution of an HIV-IIIb concentrated ABI stock (0.004 m.o.i. for MT4 cells). Infected and uninfected cells are diluted in cell growth medium and 35 uL of 2000 (for MT4) cells is added to each well of the assay plates.
Assay plates were then incubated in a 37° C. incubator. After 5 days of incubation, 25 μl of 2× concentrated CellTiter-Glo™ Reagent (catalog #G7573, Promega Biosciences, Inc., Madison, Wis.) was added to each well of the assay plate. Cell lysis was carried out by incubating at room temperature for 2-3 min and then chemiluminescence was read using the Envision reader (PerkinElmer).
Background: In ATP-based viability assays light output follows the ATP content of the culture.
The term pEC50 denotes the negative decadic logarithm of the EC50, by convention in mol/L. For the compound `Cc1cc2ccccc2c(-c2ccc(F)c3cccnc23)c1[C@H](OC(C)(C)C)C(=O)O` [Compound 10, (2S)-2-tert-Butoxy-2-(1-(5-fluoroquinolin-8-yl)-3-methylnaphthalen-2-yl)acetic acid], the pEC50 is 4.44.

In the case of `Cc1cc2cc(F)c(F)cc2c(-c2ccc3c4c(ccnc24)CCO3)c1[C@H](OC(C)(C)C)C(=O)O` (atropisomer, axis not shown) [Compound 174], the pEC50 is 5.49.

As to `CC(C)(C)O[C@H](C(=O)O)c1c(CO)cc2ccccc2c1-c1ccc(Cl)cc1` [Compound 30, (S)-2-tert-Butoxy-2-(1-(4-chlorophenyl)-3-(hydroxymethyl)naphthalen-2-yl)acetic acid], the pEC50 was 7.36.

Consider `Cc1cc2ccccc2c(-c2ccc(Cl)cc2)c1[C@H](OC(C)(C)C)C(=O)O` [Compound 3K, (S)-2-tert-butoxy-2-(1-(4-chlorophenyl)-3-methylnaphthalen-2-yl)acetic acid], for which the pEC50 was 7.25.

Take `Cc1cc2c(F)cc(F)cc2c(-c2ccc3c4c(ccnc24)CCO3)c1[C@H](OC(C)(C)C)C(=O)O` (atropisomer, axis not shown) [Compound 172]: the pEC50 is 4.30.

Consider `Cc1c(C(OC(C)(C)C)C(=O)O)c(-c2ccc(Cl)cc2)c2ccccc2c1-c1ccc(N)nc1` (centres unmarked) [Compound 143, 2-(4-(6-Aminopyridin-3-yl)-1-(4-chlorophenyl)-3-methylnaphthalen-2-yl)-2-tert-butoxyacetic acid], for which the pEC50 was 7.25.

As for `Cc1cc2cc(-c3ccc(Cl)cc3)ccc2c(-c2ccc(Cl)cc2)c1C(OC(C)(C)C)C(=O)O` (centres unmarked) [Compound 66, 2-(1,6-Bis(4-chlorophenyl)-3-methylnaphthalen-2-yl)-2-tert-butoxyacetic acid], the pEC50 was 6.54.

`CC(C)(C)O[C@H](C(=O)O)c1c(CF)cc2ccccc2c1-c1ccc2c3c(ccnc13)CCO2` [Compound 31, (S)-2-tert-Butoxy-2-((R)-1-(2,3-dihydropyrano[4,3,2-de]quinolin-7-yl)-3-(fluoromethyl)naphthalen-2-yl)acetic acid]: the pEC50 is 6.96.

On to `CC(=O)NC(C)(C)C#Cc1ccc2cc(C)c(C(OC(C)(C)C)C(=O)O)c(-c3ccc(Cl)cc3)c2c1` (centres unmarked) [Compound 96, 2-(7-(3-Acetamido-3-methylbut-1-ynyl)-1-(4-chlorophenyl)-3-methylnaphthalen-2-yl)-2-tert-butoxyacetic acid], for which the pEC50 is 7.06.

Turning to `Cc1cc2ccc(C#CC(C)(C)O)cc2c(-c2ccc(Cl)cc2)c1C(OC(C)(C)C)C(=O)O` (centres unmarked) [Compound 69, 2-tert-butoxy-2-(1-(4-chlorophenyl)-7-(3-hydroxy-3-methylbut-1-ynyl)-3-methylnaphthalen-2-yl)acetic acid], the pEC50 is 6.42.

Consider `Cc1cc2ccc(CCC3CCCC3)cc2c(-c2ccc(Cl)cc2)c1C(OC(C)(C)C)C(=O)O` (centres unmarked) [Compound 90, 2-tert-Butoxy-2-(1-(4-chlorophenyl)-7-(2-cyclopentylethyl)-3-methylnaphthalen-2-yl)acetic acid], for which the pEC50 is 4.51.

For `Cc1cc2ccc(C#CC(C)(C)N)cc2c(-c2ccc(Cl)cc2)c1C(OC(C)(C)C)C(=O)O` (centres unmarked) [Compound 85, 2-(7-(3-Amino-3-methylbut-1-ynyl)-1-(4-chlorophenyl)-3-methylnaphthalen-2-yl)-2-tert-butoxyacetic acid], the pEC50 is 7.74.

With `Cc1cc2ccccc2c(C2=CCC3(CC2)CC3)c1[C@H](OC(C)(C)C)C(=O)O` [Compound 15, (S)-2-tert-Butoxy-2-(3-methyl-1-(spiro[2.5]oct-5-en-6-yl)naphthalen-2-yl)acetic acid], the pEC50 was 7.82.

As to `Cc1cc2cc(C3CC3)c(F)cc2c(-c2ccc3c4c(ccnc24)CCO3)c1[C@H](OC(C)(C)C)C(=O)O` (atropisomer, axis not shown) [Compound 170], the pEC50 was 4.54.

`Cc1cc2cc(C(C)C)c(F)cc2c(-c2ccc3c4c(ccnc24)CCO3)c1[C@H](OC(C)(C)C)C(=O)O` (atropisomer, axis not shown) [Compound 167]: the pEC50 was 4.54.

Take `Cc1c(C(OC(C)(C)C)C(=O)O)c(-c2ccc(Cl)cc2)c2ccccc2c1CCCN(C)C` (centres unmarked) [Compound 132, 2-tert-Butoxy-2-(1-(4-chlorophenyl)-4-(3-(dimethylamino)propyl)-3-methylnaphthalen-2-yl)acetic acid]: the pEC50 is 6.93.

`Cc1cc2ccccc2c(C2=CC(C)(C)CCC2=O)c1[C@H](OC(C)(C)C)C(=O)O` [Compound 11, (S)-2-tert-Butoxy-2-(1-(3,3-dimethyl-6-oxocyclohex-1-enyl)-3-methylnaphthalen-2-yl)acetic acid]: the negative-log EC50 (pEC50) is 5.05.

Consider `Cc1c(C(OC(C)(C)C)C(=O)O)c(-c2ccc(Cl)cc2)c2ccccc2c1CN(C)C` (centres unmarked) [Compound 133, 2-tert-Butoxy-2-(1-(4-chlorophenyl)-4-((dimethylamino)methyl)-3-methylnaphthalen-2-yl)acetic acid], for which the pEC50 was 6.91.

With `Cc1cc2ccc(C#CC3CCCC3)cc2c(-c2ccc(Cl)cc2)c1C(OC(C)(C)C)C(=O)O` (centres unmarked) [Compound 74, 2-tert-Butoxy-2-(1-(4-chlorophenyl)-7-(cyclopentylethynyl)-3-methylnaphthalen-2-yl)acetic acid], the pEC50 is 5.92.

With `Cc1c(C(OC(C)(C)C)C(=O)O)c(-c2ccc(Cl)cc2)c2ccccc2c1C` (centres unmarked) [Compound 127, 2-tert-Butoxy-2-(1-(4-chlorophenyl)-3,4-dimethylnaphthalen-2-yl)acetic acid], the pEC50 was 7.06.

As to `Cc1cc2ccc(C#CC(C)(C)O)cc2c(-c2ccc(Cl)cc2)c1[C@H](OC(C)(C)C)C(=O)O` [Compound 99, (S)-2-tert-Butoxy-2-(1-(4-chlorophenyl)-7-(3-hydroxy-3-methylbut-1-ynyl)-3-methylnaphthalen-2-yl)acetic acid], the negative logarithm of the EC50 (pEC50) was 6.97.

Regarding `Cc1cc2cc(C#N)c(F)cc2c(-c2ccc3c4c(ccnc24)CCO3)c1[C@H](OC(C)(C)C)C(=O)O` (atropisomer, axis not shown) [Compound 169], the pEC50 is 4.74.

As to `Cc1cc2cc(-c3cnccn3)ccc2c(-c2ccc(Cl)cc2)c1[C@H](OC(C)(C)C)C(=O)O` [Compound 60, (S)-2-tert-Butoxy-2-(1-(4-chlorophenyl)-3-methyl-6-(pyrazin-2-yl)naphthalen-2-yl)acetic acid], the pEC50 is 7.49.

For `Cc1cc2cc(-c3ccccn3)ccc2c(-c2ccc(Cl)cc2)c1[C@H](OC(C)(C)C)C(=O)O` [Compound 63, (S)-2-tert-Butoxy-2-(1-(4-chlorophenyl)-3-methyl-6-(pyridin-2-yl)naphthalen-2-yl)acetic acid], the pEC50 was 7.00.

Still in this assay, the particulars now being: MT-4 cells infected with HIV-IIIb (0.004 m.o.i.), 5 days of incubation, CellTiter-Glo chemiluminescence readout; read-out: EC50.
As to `Cc1cc2cc(C#N)c(F)cc2c(-c2ccc3c4c(ccnc24)CCO3)c1[C@H](OC(C)(C)C)C(=O)O` [Compound 106A, (S)-2-tert-Butoxy-2-((R)-6-cyano-1-(2,3-dihydropyrano[4,3,2-de]quinolin-7-yl)-7-fluoro-3-methylnaphthalen-2-yl)acetic acid], the pEC50 was 7.07.

As for `Cc1cc2c(Cl)c(C)ccc2c(-c2ccc3c4c(ccnc24)CCO3)c1[C@H](OC(C)(C)C)C(=O)O` [Compound 116, (S)-2-tert-Butoxy-2-((R)-5-chloro-1-(2,3-dihydropyrano[4,3,2-de]quinolin-7-yl)-3,6-dimethylnaphthalen-2-yl)acetic acid], the negative-log EC50 (pEC50) is 7.80.

On to `Cc1cc2c(F)c(C(F)F)ccc2c(-c2ccc3c4c(ccnc24)CCO3)c1[C@H](OC(C)(C)C)C(=O)O` [Compound 121, (S)-2-tert-Butoxy-2-((R)-6-(difluoromethyl)-1-(2,3-dihydropyrano[4,3,2-de]quinolin-7-yl)-5-fluoro-3-methylnaphthalen-2-yl)acetic acid], for which the pEC50 is 7.85.

With `Cc1cc2c(F)c(CO)ccc2c(-c2ccc3c4c(ccnc24)CCO3)c1[C@H](OC(C)(C)C)C(=O)O` [Compound 186B, (S)-2-tert-butoxy-2-((R)-1-(2,3-dihydropyrano[4,3,2-de]quinolin-7-yl)-5-fluoro-6-(hydroxymethyl)-3-methylnaphthalen-2-yl)acetic acid], the pEC50 is 7.62.

For the compound `CCc1cc2cc(C)c([C@H](OC(C)(C)C)C(=O)O)c(-c3ccc4c5c(ccnc35)CCO4)c2cc1F` [Compound 104, (S)-2-tert-Butoxy-2-((R)-1-(2,3-dihydropyrano[4,3,2-de]quinolin-7-yl)-6-ethyl-7-fluoro-3-methylnaphthalen-2-yl)acetic acid], the pEC50 was 7.44.

For `Cc1cc2ccccc2c(-c2ccc3c4c(ccnc24)CCO3)c1[C@H](OC(C)(C)C)C(=O)O` [Compound 6D, (S)-2-tert-Butoxy-2-((R)-1-(2,3-dihydropyrano[4,3,2-de]quinolin-7-yl)-3-methylnaphthalen-2-yl)acetic acid], the pEC50 is 7.85.

As to `Cc1cc2ccccc2c(C2=CC(C)(C)CCC2=O)c1[C@H](OC(C)(C)C)C(=O)O` [Compound 157], the negative logarithm of the EC50 (pEC50) was 5.00.

As to `Cc1cc2cc(C(F)F)c(F)cc2c(-c2ccc3c4c(ccnc24)CCO3)c1[C@H](OC(C)(C)C)C(=O)O` [Compound 103, (S)-2-tert-Butoxy-2-((R)-6-(difluoromethyl)-1-(2,3-dihydropyrano[4,3,2-de]quinolin-7-yl)-7-fluoro-3-methylnaphthalen-2-yl)acetic acid], the pEC50 is 7.59.
